Reference: patent US20230085307A1, “PYRIDAZINONE COMPOUND AND HERBICIDE” (NISSAN CHEMICAL CORPORATION, priority 2019, published 2023)

test system: barnyard grass; test: Test Example 3: herbicidal effect by foliage application, Wagner pot (Table 18, symbol H); assay type: in vivo, barnyard grass (Echinochloa crus-galli); details: amount of applied herbicide 320 g/ha
Procedure, shortened: (§1)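 Plants were sown in alluvial soil held under 0.1–0.5 cm standing water and grown 14 days in a greenhouse at 25–30 °C. An emulsifiable formulation, water-diluted to the set dose, was then sprayed onto the foliage, and effects were scored three weeks later using previously defined criteria.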

| SMILES | herbicidal effect on H: barnyard grass |
| --- | --- |
| COc1ccc(F)c(-c2sc3ccc(F)cc3c2-c2c(O)c(C)nn(C)c2=O)c1 [2-366] | 3 (Herbicidal rate of 40% or more and less than 70%) |
| Cc1nn(C)c(=O)c(-c2c(-c3cnccc3F)sc3ccc(F)cc23)c1O [2-383] | 5 (Herbicidal rate of 90% or more (almost completely withered)) |

test system: Chinese sprangletop; test: Test Example 3: herbicidal effect by foliage application, Wagner pot (Table 18, symbol D); assay type: in vivo, chinese sprangletop (Leptochloa chinensis); details: amount of applied herbicide 320 g/ha
Procedure, shortened: as §1

| SMILES | herbicidal effect on D: Chinese sprangletop |
| --- | --- |
| COc1ccc(F)c(-c2sc3ccc(F)cc3c2-c2c(O)c(C)nn(C)c2=O)c1 [2-366] | 0 (Herbicidal rate of 5% or less (almost no effect)) |
| Cc1nn(C)c(=O)c(-c2c(-c3cnccc3F)sc3ccc(F)cc23)c1O [2-383] | 5 (Herbicidal rate of 90% or more (almost completely withered)) |

test system: rice flat sedge; test: Test Example 3: herbicidal effect by foliage application, Wagner pot (Table 18, symbol E); assay type: in vivo, rice flat sedge (Cyperus iria); details: amount of applied herbicide 320 g/ha
Procedure, shortened: as §1

| SMILES | herbicidal effect on E: rice flat sedge |
| --- | --- |
| COc1ccc(F)c(-c2sc3ccc(F)cc3c2-c2c(O)c(C)nn(C)c2=O)c1 [2-366] | 3 (Herbicidal rate of 40% or more and less than 70%) |
| Cc1nn(C)c(=O)c(-c2c(-c3cnccc3F)sc3ccc(F)cc23)c1O [2-383] | 5 (Herbicidal rate of 90% or more (almost completely withered)) |

test system: southern crabgrass; test: Test Example 4: herbicidal effect by soil treatment (Table 19, symbol F); assay type: in vivo, southern crabgrass (Digitaria ciliaris); details: amount of applied herbicide 320 g/ha
Procedure, shortened: (§2)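 Seeds were sown in sterilized diluvial soil and covered with about 1.5 cm of soil. An emulsion formulation diluted with water to a predetermined herbicide amount was sprayed evenly onto the soil surface. Plants grew in a greenhouse at 25° C. to 30° C., and the effect was scored three weeks after application using criteria from an earlier test.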

| SMILES | herbicidal effect, F: southern crabgrass |
| --- | --- |
| COc1ccc(F)c(-c2sc3ccc(F)cc3c2-c2c(O)c(C)nn(C)c2=O)c1 [2-366] | 3 (Herbicidal rate of 40% or more and less than 70%) |
| Cc1nn(C)c(=O)c(-c2c(-c3cnccc3F)sc3ccc(F)cc23)c1O [2-383] | 4 (Herbicidal rate of 70% or more and less than 90%) |

test system: green foxtail; test: Test Example 4: herbicidal effect by soil treatment (Table 19, symbol G); assay type: in vivo, green foxtail (Setaria viridis); details: amount of applied herbicide 320 g/ha
Procedure, shortened: as §2

| SMILES | herbicidal effect, G: green foxtail |
| --- | --- |
| COc1ccc(F)c(-c2sc3ccc(F)cc3c2-c2c(O)c(C)nn(C)c2=O)c1 [2-366] | 0 (Herbicidal rate of 5% or less (almost no effect)) |
| Cc1nn(C)c(=O)c(-c2c(-c3cnccc3F)sc3ccc(F)cc23)c1O [2-383] | 4 (Herbicidal rate of 70% or more and less than 90%) |

test system: barnyard grass; test: Test Example 4: herbicidal effect by soil treatment (Table 19, symbol H); assay type: in vivo, barnyard grass (Echinochloa crus-galli); details: amount of applied herbicide 320 g/ha
Procedure, shortened: as §2

| SMILES | herbicidal effect, H: barnyard grass |
| --- | --- |
| COc1ccc(F)c(-c2sc3ccc(F)cc3c2-c2c(O)c(C)nn(C)c2=O)c1 [2-366] | 0 (Herbicidal rate of 5% or less (almost no effect)) |
| Cc1nn(C)c(=O)c(-c2c(-c3cnccc3F)sc3ccc(F)cc23)c1O [2-383] | 3 (Herbicidal rate of 40% or more and less than 70%) |

test system: wild oat; test: Test Example 4: herbicidal effect by soil treatment (Table 19, symbol I); assay type: in vivo, wild oat (Avena fatua); details: amount of applied herbicide 320 g/ha
Procedure, shortened: as §2

| SMILES | herbicidal effect, I: wild oat |
| --- | --- |
| COc1ccc(F)c(-c2sc3ccc(F)cc3c2-c2c(O)c(C)nn(C)c2=O)c1 [2-366] | 0 (Herbicidal rate of 5% or less (almost no effect)) |
| Cc1nn(C)c(=O)c(-c2c(-c3cnccc3F)sc3ccc(F)cc23)c1O [2-383] | 3 (Herbicidal rate of 40% or more and less than 70%) |

test system: blackgrass; test: Test Example 4: herbicidal effect by soil treatment (Table 19, symbol J); assay type: in vivo, blackgrass (Alopecurus myosuroides); details: amount of applied herbicide 320 g/ha
Procedure, shortened: as §2

| SMILES | herbicidal effect, J: blackgrass |
| --- | --- |
| COc1ccc(F)c(-c2sc3ccc(F)cc3c2-c2c(O)c(C)nn(C)c2=O)c1 [2-366] | 2 (Herbicidal rate of 20% or more and less than 40%) |
| Cc1nn(C)c(=O)c(-c2c(-c3cnccc3F)sc3ccc(F)cc23)c1O [2-383] | 4 (Herbicidal rate of 70% or more and less than 90%) |

test system: Italian ryegrass; test: Test Example 4: herbicidal effect by soil treatment (Table 19, symbol K); assay type: in vivo, Italian ryegrass (Lolium multiflorum); details: amount of applied herbicide 320 g/ha
Procedure, shortened: as §2

| SMILES | herbicidal effect, K: Italian ryegrass |
| --- | --- |
| COc1ccc(F)c(-c2sc3ccc(F)cc3c2-c2c(O)c(C)nn(C)c2=O)c1 [2-366] | 4 (Herbicidal rate of 70% or more and less than 90%) |
| Cc1nn(C)c(=O)c(-c2c(-c3cnccc3F)sc3ccc(F)cc23)c1O [2-383] | 4 (Herbicidal rate of 70% or more and less than 90%) |

test system: windgrass; test: Test Example 4: herbicidal effect by soil treatment (Table 19, symbol L); assay type: in vivo, windgrass (Apera spica-venti); details: amount of applied herbicide 320 g/ha
Procedure, shortened: as §2

| SMILES | herbicidal effect, L: windgrass |
| --- | --- |
| COc1ccc(F)c(-c2sc3ccc(F)cc3c2-c2c(O)c(C)nn(C)c2=O)c1 [2-366] | 0 (Herbicidal rate of 5% or less (almost no effect)) |
| Cc1nn(C)c(=O)c(-c2c(-c3cnccc3F)sc3ccc(F)cc23)c1O [2-383] | 3 (Herbicidal rate of 40% or more and less than 70%) |

test system: velvetleaf; test: Test Example 4: herbicidal effect by soil treatment (Table 19, symbol M); assay type: in vivo, velvetleaf (Abutilon theophrasti); details: amount of applied herbicide 320 g/ha
Procedure, shortened: as §2

| SMILES | herbicidal effect, M: velvetleaf |
| --- | --- |
| COc1ccc(F)c(-c2sc3ccc(F)cc3c2-c2c(O)c(C)nn(C)c2=O)c1 [2-366] | 0 (Herbicidal rate of 5% or less (almost no effect)) |
| Cc1nn(C)c(=O)c(-c2c(-c3cnccc3F)sc3ccc(F)cc23)c1O [2-383] | 4 (Herbicidal rate of 70% or more and less than 90%) |

test system: redroot pigweed; test: Test Example 4: herbicidal effect by soil treatment (Table 19, symbol N); assay type: in vivo, redroot pigweed (Amaranthus retroflexus); details: amount of applied herbicide 320 g/ha
Procedure, shortened: as §2

| SMILES | herbicidal effect, N: redroot pigweed |
| --- | --- |
| COc1ccc(F)c(-c2sc3ccc(F)cc3c2-c2c(O)c(C)nn(C)c2=O)c1 [2-366] | 4 (Herbicidal rate of 70% or more and less than 90%) |
| Cc1nn(C)c(=O)c(-c2c(-c3cnccc3F)sc3ccc(F)cc23)c1O [2-383] | 5 (Herbicidal rate of 90% or more (almost completely withered)) |

test system: lambsquarters; test: Test Example 4: herbicidal effect by soil treatment (Table 19, symbol O); assay type: in vivo, lambsquarters (Chenopodium album); details: amount of applied herbicide 320 g/ha
Procedure, shortened: as §2

| SMILES | herbicidal effect, O: lambsquarters |
| --- | --- |
| COc1ccc(F)c(-c2sc3ccc(F)cc3c2-c2c(O)c(C)nn(C)c2=O)c1 [2-366] | 2 (Herbicidal rate of 20% or more and less than 40%) |
| Cc1nn(C)c(=O)c(-c2c(-c3cnccc3F)sc3ccc(F)cc23)c1O [2-383] | 4 (Herbicidal rate of 70% or more and less than 90%) |

test system: chickweed; test: Test Example 4: herbicidal effect by soil treatment (Table 19, symbol P); assay type: in vivo, common chickweed (Stellaria media); details: amount of applied herbicide 320 g/ha
Procedure, shortened: as §2

| SMILES | herbicidal effect, P: chickweed |
| --- | --- |
| COc1ccc(F)c(-c2sc3ccc(F)cc3c2-c2c(O)c(C)nn(C)c2=O)c1 [2-366] | 3 (Herbicidal rate of 40% or more and less than 70%) |
| Cc1nn(C)c(=O)c(-c2c(-c3cnccc3F)sc3ccc(F)cc23)c1O [2-383] | 4 (Herbicidal rate of 70% or more and less than 90%) |

test system: persian speedwell; test: Test Example 4: herbicidal effect by soil treatment (Table 19, symbol R); assay type: in vivo, Persian speedwell (Veronica persica); details: amount of applied herbicide 320 g/ha
Procedure, shortened: as §2

| SMILES | herbicidal effect, R: persian speedwell |
| --- | --- |
| COc1ccc(F)c(-c2sc3ccc(F)cc3c2-c2c(O)c(C)nn(C)c2=O)c1 [2-366] | 3 (Herbicidal rate of 40% or more and less than 70%) |
| Cc1nn(C)c(=O)c(-c2c(-c3cnccc3F)sc3ccc(F)cc23)c1O [2-383] | 5 (Herbicidal rate of 90% or more (almost completely withered)) |
